Columns and labels:
SHRs [1] = assay type: in vivo, rat (SHR)
Procedure: (§1) Each rat cage was placed on a receiver (RLA 1020, Data Sciences, St. Paul, Minn.) for measurement of cardiovascular parameters. Data were collected with a computer-based data acquisition program (Dataquest Lab-PRO3.0; Data Sciences). BP and HR were measured every 10 min. and averaged every 1 to 24 hrs. Before treatment, SHRs were monitored for a week to get a stable baseline.
as §1, with “(RLA1020,” for “(RLA 1020,”, “Sciences)” for “Sciences, St. Paul, Minn.)”, “LabPRO3.0;” for “Lab-PRO3.0;”, “min” for “min.”, “hr.” for “hrs.”, “SHR” for “SHRs”

β1-ARs = target: T1, β1-ARs (Rattus norvegicus, UniProt P18090); conditions: even after 18 days, single i.v. injection (Zhang et al., 1999); cited from earlier work
T1 construct: membranes were prepared from heart ventricles as previously described; from tissue; host or cells: heart ventricles of SHR

[2] = Immune response (gel immunodiffusion, C-reactive protein); assay type: in vivo, rat (SHR); conditions: after repeated administration
Text: Safety profiles including liver transaminases, hematology, immune response and tissue pathology were investigated during three repeated injections of β1-AS-ODNs for extended periods of time.
C-reactive protein (CRP), a clinical index for immune reaction, was found negative in all animals.

SHRs [3] = conditions: Zhang et al., 1999; without causing bradycardia; cited from earlier work
β2-AR = test: β-adrenergic receptor binding assay on renal cortex membranes; assay type: in vivo, rat (SHR); conditions: 0.5 mg/kg i.v.
Procedure: Four days after intravenous injection of saline (n=6) or 0.5 mg/kg inverted ODN (n=6) or 4, 10, 18 and 40 days after injection of 0.5 mg/kg β1-AS-ODN (n=24), animals were euthanized, and membranes were prepared from the renal cortex of the left kidneys as previously described (Baker and Pitha, 1982). For saturation studies, 100 μg membrane protein was incubated in triplicate with 6 concentrations of [^125](−)iodocyanopindolol (ICYP, NEN Life Science, 6.25 to 100 pmol/L) in a total volume of 250 μL containing 50 mmol/L Tris-HCl (pH 7.4) and 5 mmol/L MgCl2 at 36° C. for 60 min. The nonspecific and β2-adrenergic receptor binding levels were determined in the presence of 1 μmol/L (±)-alprenolol and […] CGP20712A (RBI), respectively. Then the reaction mixture was passed through a Whatman GF/B glass fiber filter with a Brandel harvester, and the bound radioactivity was counted for 1 min.

β1-AR mRNA = test: RT-PCR and Southern blotting, renal cortex; assay type: in vivo, rat (SHR); conditions: 0.5 mg/kg i.v., semiquantitative RT-PCR
Procedure: (§2) At different time points after the single injection of β1-AS-ODN or inverted ODN, rats were euthanized, and the renal cortex was dissected from the left kidneys, immediately dipped into RNA later tissue storage buffer (Ambion), and stored at −20° C. Total RNA was extracted with RNAwiz reagent (Ambion) and quantified by spectrophotometer. RNA samples from 4 to 5 rats from each time point were pooled. RNA (5 μg) was digested by DNase I and reverse-transcribed by Superscript reverse transcriptase (GIBCO BRL) at 42° C. for 50 min. and 1/20 of the reverse transcription (RT) product was used to run a polymerase chain reaction (PCR) for 20 cycles. PCR primers for β1-AR were 5′-[…]-3′ (SEQ ID NO:199) (forward) and 5′-[…]-3′ (SEQ ID NO:200) (reverse) and yielded products of 432 bp, which spanned the AUG start codon. Primers for preprorenin were 5′-[…]-3′ (SEQ ID NO:201) (forward) and 5′-[…]-3′ (SEQ ID NO:202) (reverse) and yielded products of 362 bp.
(§3) Primers for GAPDH were 5′-[…]-3′ (SEQ ID NO:203) (forward) and 5′-[…]-3′ (SEQ ID NO:204) (reverse) and yielded products of 505 bp (Jo et al., 1996). RT-PCR products were subjected to Southern blotting, hybridized with psoralen-biotin-labeled cDNA probes, and detected with nonisotopic kits (Ambion). After the membranes had been exposed to x-ray films, the intensity of β1-AR and preprorenin mRNAs was quantified by densitometry and normalized with GAPDH mRNA levels. The studies were repeated at least twice.

preprorenin mRNA = test: RT-PCR and Southern blotting, renal cortex; assay type: in vivo, rat (SHR)
Procedure: as §2, §3

T1 sequence (P18090 whole entry): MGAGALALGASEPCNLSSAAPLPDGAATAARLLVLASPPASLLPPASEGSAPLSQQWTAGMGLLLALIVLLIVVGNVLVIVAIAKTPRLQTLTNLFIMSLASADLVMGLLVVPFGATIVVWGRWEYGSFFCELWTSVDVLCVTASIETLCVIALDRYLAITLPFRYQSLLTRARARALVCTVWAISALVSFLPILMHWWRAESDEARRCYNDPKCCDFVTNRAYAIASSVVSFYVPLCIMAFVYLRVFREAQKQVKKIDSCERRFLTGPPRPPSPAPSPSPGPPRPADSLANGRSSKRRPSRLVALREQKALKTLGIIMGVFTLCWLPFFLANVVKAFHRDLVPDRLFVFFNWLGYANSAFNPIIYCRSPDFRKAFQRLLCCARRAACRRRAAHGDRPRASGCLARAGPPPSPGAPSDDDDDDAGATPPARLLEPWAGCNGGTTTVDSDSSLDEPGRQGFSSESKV

## 5′-CCGCGCCCATGCCGA-3′ (phosphorothioate backbone, further chemistry not given here) [β1-AS-ODN, 15-mer antisense ODN targeted to the AUG start codon of rat β1-AR mRNA]
SHRs [1]; 1 mg/kg, liposomes 1:0.5
  duration of antihypertensive effect: 8 days
  maximum drop in mean BP: 15 mm Hg
SHRs [1]; rat, in vivo
  reflex tachycardia: no reflex tachycardia
β1-ARs
  decrease in ventricular β1-AR density: 30-50%
[2]
  C-Reactive Protein: negative
[2]; gel immunodiffusion
  Antibody to ODN: no detectable antibody
SHRs [3]
  maximum drop in blood pressure: 38 mmHg
β2-AR
  β2-AR level in renal cortex: not affected
β1-AR mRNA
  level of steady-state β1-AR mRNA in renal cortex: did not reduce
β1-AR mRNA; listed as AS-ODN
  level of steady-state β1-AR mRNA in renal cortex: no reduction
Preprorenin mRNA; 4 days after injection
  preprorenin mRNA level in renal cortex: 62 % of control
Preprorenin mRNA; by day 18
  preprorenin mRNA decrease: completely reversed
